Reference: US12473250B2, “Molecular design of new antibiotics and antibiotic adjuvants against MCR strains” (priority 2019, dated 2025)
Values after ≈ are worked out from the molar mass of the structure shown.

What was measured:
Assay type in all cases: cell-based
various pathogens = assay: organism not typed
Description: (§1) The MICs of the individual drugs and LC compound in combinations were determined using the broth microdilution technique as recommended by the CLSI whereby the two anti-microbial agents were added in an equal amount. (e.g.: 50 μL of Colistin: 50 μL of LC compounds). Diluted media containing compounds and antibiotics will be serially diluted 2-fold, and LC compounds and antibiotics alone or in combination will be assayed at fixed synergy concentration. In all cases, the lowest concentration at which no visible growth occurred was be recorded to be the MIC value of individual and combined antibacterial agents. The results were obtained after 24 hours of incubation.
Using the combination of LC100 and colistin, the activity of a broad range of strains was further tested (Table 7).

[1] = system: colistin resistant MCR (+) E. Coli strains; assay: MIC, broth microdilution, compound alone; conditions: for MIC: compound alone
Description: (§2) MIC experiments of the antimicrobial agents were determined by a modified broth microdilution method in accordance with the Clinical and Laboratory Standards Institute (CLSI) guidelines using 96 well culture plates. In brief, serial dilutions of all plates were prepared at different concentrations (μg). The inoculum suspension was prepared by adding isolated colonies from a 18-20 hours on TSA plate into phosphate buffer (0.31 mM, pH 7.2) or in water for injection (BBraun) and adjusting the suspension to a turbidity equivalent to 0.5 McFarland Standard. Each well contained a final bacterial concentration of approximately 5×10^5 colony forming units (CFU)/mL. The plate was covered and incubated at 35° C. for 24 hours. […] For the microdilution plates, turbidity in wells can be measured at OD600 using TECAN infinite M200Pro. MIC was determined as […] concentration that gives a 99 percent inhibition.

[2] = system: colistin resistant MCR (+) E. Coli strains; assay: Synergy study: colistin MIC in the presence of compound; conditions: against mcr-1 bacteria
Description: as §1

[3] = system: colistin resistant MCR (−) E. Coli strains; assay: MIC, broth microdilution, compound alone
Description: as §2

[4] = system: colistin resistant MCR (−) E. Coli strains; assay: Synergy study: colistin MIC in the presence of compound; conditions: compound at 2 μg
Description: as §1

[5] = Escherichia coli, 6093560257 [MCR 1+, E. Coli, NDM-1]
[6] = Escherichia coli, 7103531927 [MCR 1+, E. Coli, KPC+]
[7] = Escherichia coli, 7113636863 [MCR 1+, E. Coli, NDM-1]
[8] = Escherichia coli, E. Coli CRE 11804
[9] = Escherichia coli, E. Coli CRE 17232
[10] = Escherichia coli, E. Coli CRE 17528

Compound	MIC (various pathogens; [5])	MIC (various pathogens; [6])	MIC (various pathogens; [7])	MIC (various pathogens; [8])	MIC (various pathogens; [9])	MIC (various pathogens; [10])	MIC (various pathogens; KLPN CRE 7955)	MIC (various pathogens; KLPN CRE 16260)	MIC (various pathogens; KLPN CRE 55301)	MIC (various pathogens; PAE DM 23155)	MIC (various pathogens; PAE DM 23257)	MIC (various pathogens; PAE DM 23376)	MIC (various pathogens; PAE DR 4877)	MIC (various pathogens; PAE DR 5790)	MIC (various pathogens; PAE DU 14476)	concentration at which the compound shows synergy with colistin [2]	further results
COc1c(N2CCNC(C)C2)c(F)cc2c(=O)c(C(=O)O)cn(C3CC3)c12 (stereo not drawn) [Gatifloxacin]	0.78 µg/mL	< 0.0975 µg/mL	50 µg/mL	< 0.015 µg/mL	12.5 µg/mL	25 µg/mL	100 µg/mL	3.12 µg/mL	25 µg/mL	1.56 µg/mL	0.78 µg/mL	1.56 µg/mL	25 µg/mL	25 µg/mL	25 µg/mL		MIC (various pathogens; ACBA 1003 (CI)): 12.5 µg/mL; MIC (various pathogens; ACBA 1004 (CI)): 12.5 µg/mL; MIC (various pathogens; ACBA 1005 (CI)): 6.25 µg/mL; MIC (various pathogens; ACBA 1006 (CI)): 6.25 µg/mL; MIC (various pathogens; ACBA 1010 (CI)): < 0.098 µg/mL; MIC (various pathogens; Escherichia coli, 6083655967 [MCR 1+, E. Coli]): 12.5 µg/mL; MIC (various pathogens; Escherichia coli, 7023446108 [MCR 1−, E. Coli]): 3.12 µg/mL; MIC (various pathogens; Escherichia coli, ATCC8739, E. Coli ATCC 8739): 0.024 µg/mL; MIC (various pathogens; Escherichia coli, ATCC10536, E. Coli ATCC 10536): 0.012 µg/mL; MIC (various pathogens; Escherichia coli, ATCC25922, E. Coli ATCC 25922): 0.012 µg/mL; MIC (various pathogens; Escherichia coli, E. Coli CRE 19211): 25 µg/mL; MIC (various pathogens; Escherichia coli, E. Coli CRE 34685): 0.195 µg/mL; MIC (various pathogens; KLPN ATCC 4352): < 0.049 µg/mL; MIC (various pathogens; KLPN ATCC 10031): < 0.049 µg/mL; MIC (various pathogens; KLPN ATCC 27736): < 0.049 µg/mL; MIC (various pathogens; KLPN CRE 15588): 25 µg/mL; MIC (various pathogens; KLPN CRE 27025): 3.12 µg/mL; MIC (various pathogens; PAE ATCC 9027): 0.78 µg/mL; MIC (various pathogens; PAE ATCC 27853): 1.56 µg/mL
C[C@@H](O)[C@H]1C(=O)N2C(C(=O)O)=C(S[C@@H]3CN[C@H](C(=O)Nc4cccc(C(=O)O)c4)C3)[C@H](C)[C@H]12 [Ertapenem]	25 µg/mL	12.5 µg/mL	> 50 µg/mL	25 µg/mL	1.56 µg/mL	> 25 µg/mL	> 25 µg/mL	> 50 µg/mL	> 25 µg/mL	12.5 µg/mL	> 25 µg/mL	> 25 µg/mL	> 25 µg/mL	> 25 µg/mL	> 25 µg/mL		MIC (various pathogens; PAE DM 4150): > 25 µg/mL
CC1(C)C=Cc2c(ccc3c2OCC(c2ccc(OCCCCN(Cc4ccccn4)Cc4ccccn4)cc2OCCCCN(Cc2ccccn2)Cc2ccccn2)C3)O1 (stereo not drawn) [GLA-DPA]																5 µg/mL	antimicrobial activity when used alone ([1]; colistin resistant bacteria, in words): limited antimicrobial activity; synergy with colistin ([2]; in words): restore the sensitivity of E. coli with mcr-1 to colistin
Cc1cc(OCCCCN(Cc2ccccn2)Cc2ccccn2)cc(OCCCCN(Cc2ccccn2)Cc2ccccn2)c1 [Orc-DPA]																50 µg/mL	
CC(C)=CCc1c(OCCN(C)CCCN(C)C)ccc(C(=O)/C=C/c2ccc(OCCN(C)CCCN(C)C)cc2)c1O [LC140]																	MIC ([1]; strain 6075066346, MCR (+)): 12.5 µg/mL (≈ 20.5 µM); MIC ([1]; strain 6083655967, MCR (+)): 12.5 µg/mL (≈ 20.5 µM); MIC ([1]; strain 7103531927, MCR (+)): 25 µg/mL (≈ 41.1 µM); MIC ([3]; strain 6083672926, MCR (−)): 12.5 µg/mL (≈ 20.5 µM); MIC ([3]; strain 7023446108, MCR (−)): 12.5 µg/mL (≈ 20.5 µM); MIC ([3]; strain 7033607097, MCR (−)): 6.25 µg/mL (≈ 10.3 µM); Colistin MIC in the presence of the compound ([4]; strain 6083672926, MCR(−)): 1.56 µg/mL; Colistin MIC in the presence of the compound ([4]; strain 7023446108, MCR(−)): 1.56 µg/mL; Colistin MIC in the presence of the compound ([4]; strain 7033607097, MCR(−)): 1.56 µg/mL
